In PubChem BioAssay (NCI):
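Exposure lasted 48 hours, with cells grown in 96-well plates and compounds tested at five concentrations. GI50 marks 50% less growth. TGI: concentration producing complete growth inhibition.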

Legend:
Experiment in all cases: DTP human tumour cell line panel, 48 h
PC-3 prostate = system: PC-3 prostate
SN12C renal = system: SN12C renal
UACC-62 melanoma = system: UACC-62 melanoma
HOP-62 NSCLC = system: HOP-62 NSCLC
TK-10 renal = system: TK-10 renal
SNB-19 CNS = system: SNB-19 CNS
HL-60(TB) leukemia = system: HL-60(TB) leukemia
OVCAR-8 ovarian = system: OVCAR-8 ovarian
A549 NSCLC = system: A549 NSCLC
OVCAR-3 ovarian = system: OVCAR-3 ovarian
RXF 393 renal = system: RXF 393 renal
SF-295 CNS = system: SF-295 CNS
HCC-2998 colon = system: HCC-2998 colon
786-0 renal = system: 786-0 renal
DU-145 prostate = system: DU-145 prostate
UACC-257 melanoma = system: UACC-257 melanoma
CAKI-1 renal = system: CAKI-1 renal
U251 CNS = system: U251 CNS
OVCAR-5 ovarian = system: OVCAR-5 ovarian
SK-OV-3 ovarian = system: SK-OV-3 ovarian
SW-620 colon = system: SW-620 colon
HT29 colon = system: HT29 colon
MCF7 breast = system: MCF7 breast
HOP-92 NSCLC = system: HOP-92 NSCLC
CCRF-CEM leukemia = system: CCRF-CEM leukemia
EKVX NSCLC = system: EKVX NSCLC
MOLT-4 leukemia = system: MOLT-4 leukemia
MDA-MB-231 breast = system: MDA-MB-231 breast
NCI-H226 lung = system: NCI-H226 lung
NCI/ADR-RES ovarian = system: NCI/ADR-RES ovarian
SF-268 CNS = system: SF-268 CNS
M14 melanoma = system: M14 melanoma
OVCAR-4 ovarian = system: OVCAR-4 ovarian
SR leukemia = system: SR leukemia
NCI-H522 lung = system: NCI-H522 lung
BT-549 breast = system: BT-549 breast
RPMI-8226 leukemia = system: RPMI-8226 leukemia
LOX IMVI melanoma = system: LOX IMVI melanoma
T-47D breast = system: T-47D breast
HCT-15 colon = system: HCT-15 colon
NCI-H23 lung = system: NCI-H23 lung
NCI-H460 lung = system: NCI-H460 lung
SK-MEL-5 melanoma = system: SK-MEL-5 melanoma
IGROV1 ovarian = system: IGROV1 ovarian
K-562 leukemia = system: K-562 leukemia
HCT-116 colon = system: HCT-116 colon
SK-MEL-2 melanoma = system: SK-MEL-2 melanoma
HS 578T breast = system: HS 578T breast
SK-MEL-28 melanoma = system: SK-MEL-28 melanoma
MALME-3M melanoma = system: MALME-3M melanoma
SF-539 CNS = system: SF-539 CNS
ACHN renal = system: ACHN renal
SNB-75 CNS = system: SNB-75 CNS
UO-31 renal = system: UO-31 renal
A498 renal = system: A498 renal

`COc1cc2c(cc1O)CCN[C@]21CS[C@@H]2c3c(OC(C)=O)c(C)c4c(c3[C@H](COC1=O)N1[C@@H]2[C@H]2c3c(cc(C)c(OC)c3O)C[C@@H]([C@@H]1O)N2C)OCO4` was tested, and the GI50 (PC-3 prostate) was 2.79 nM, the TGI (PC-3 prostate) was 119 nM and the TGI (SN12C renal) was 3900 nM. The TGI (UACC-62 melanoma) was 4.03 nM, the TGI (HOP-62 NSCLC) was 252 nM and the GI50 (TK-10 renal) was 3.31 nM. It also gave a TGI (TK-10 renal) of 3540 nM, a TGI (SNB-19 CNS) of 1390 nM and a TGI (HL-60(TB) leukemia) of 11.4 nM. It also gave a TGI (OVCAR-8 ovarian) of 4830 nM, a GI50 (A549 NSCLC) of 3.19 nM and a TGI (A549 NSCLC) of 2830 nM. It also gave a TGI (OVCAR-3 ovarian) of 5.7 nM, a TGI (RXF 393 renal) of 4.01 nM and a TGI (SF-295 CNS) of 1010 nM. It also gave a GI50 (HCC-2998 colon) of 3.52 nM, a TGI (HCC-2998 colon) of 6.52 nM and a TGI (786-0 renal) of 948 nM. It also gave a TGI (DU-145 prostate) of 1000 nM, a TGI (UACC-257 melanoma) of 5.57 nM and a TGI (CAKI-1 renal) of 1360 nM. It also gave a TGI (U251 CNS) of 1020 nM, a TGI (OVCAR-5 ovarian) of 1190 nM and a GI50 (SK-OV-3 ovarian) of 3.09 nM. It also gave a TGI (SK-OV-3 ovarian) of 3990 nM, a TGI (SW-620 colon) of 130 nM and a TGI (HT29 colon) of 2520 nM. For the same molecule, the TGI (MCF7 breast) was 979 nM, the GI50 (HOP-92 NSCLC) was 2.73 nM and the TGI (HOP-92 NSCLC) was 51.8 nM. It also gave a TGI (CCRF-CEM leukemia) of 3110 nM, a GI50 (EKVX NSCLC) of 4.67 nM and a TGI (EKVX NSCLC) of 45.9 nM. The TGI (MOLT-4 leukemia) was 8760 nM, the TGI (MDA-MB-231 breast) was 19.9 nM and the GI50 (NCI-H226 lung) was 3.13 nM. It also gave a TGI (NCI-H226 lung) of 5.82 nM, a GI50 (NCI/ADR-RES ovarian) of 5.91 nM and a TGI (NCI/ADR-RES ovarian) of 2610 nM. It also gave a TGI (SF-268 CNS) of 48.6 nM, a TGI (M14 melanoma) of 3.83 nM and a TGI (OVCAR-4 ovarian) of 71.8 nM. It also gave a TGI (SR leukemia) of 10500 nM, a TGI (NCI-H522 lung) of 7.46 nM and a TGI (BT-549 breast) of 6.12 nM. For the same molecule, the TGI (RPMI-8226 leukemia) was 5.29 nM, the TGI (LOX IMVI melanoma) was 262 nM and the TGI (T-47D breast) was 3020 nM. For the same molecule, the GI50 (HCT-15 colon) was 3.79 nM, the TGI (HCT-15 colon) was 361 nM and the TGI (NCI-H23 lung) was 5.7 nM. It also gave a TGI (NCI-H460 lung) of 808 nM, a TGI (SK-MEL-5 melanoma) of 4.33 nM and a GI50 (IGROV1 ovarian) of 2.57 nM. The TGI (IGROV1 ovarian) was 1960 nM, the TGI (K-562 leukemia) was 7980 nM and the TGI (HCT-116 colon) was 2940 nM. The GI50 (SK-MEL-2 melanoma) was 3.1 nM and the TGI (SK-MEL-2 melanoma) was 5.11 nM.

`COc1cccc(/C=C/C(=O)c2c(C)nc3ccccc3c2/C=C/c2ccccc2)c1OC` was tested, and the GI50 (HS 578T breast) was 3590 nM, the TGI (HS 578T breast) was greater than 100000 nM and the GI50 (SK-OV-3 ovarian) was 54100 nM. It also gave a TGI (SK-OV-3 ovarian) greater than 100000 nM.

For `N=C(N)c1ccc(-c2ccc(-c3cccs3)s2)cc1`, the GI50 (PC-3 prostate) was 1620 nM, the TGI (PC-3 prostate) was 3150 nM and the GI50 (UACC-62 melanoma) was 1680 nM. The TGI (UACC-62 melanoma) was 3180 nM, the GI50 (SK-MEL-28 melanoma) was 1630 nM and the TGI (SK-MEL-28 melanoma) was 3070 nM. The GI50 (TK-10 renal) was 1400 nM, the TGI (TK-10 renal) was 2910 nM and the GI50 (OVCAR-8 ovarian) was 1790 nM. The TGI (OVCAR-8 ovarian) was 4790 nM, the GI50 (RXF 393 renal) was 13900 nM and the TGI (RXF 393 renal) was 35500 nM. The GI50 (HCC-2998 colon) was 747 nM, the TGI (HCC-2998 colon) was 2170 nM and the GI50 (MALME-3M melanoma) was 1690 nM. It also gave a TGI (MALME-3M melanoma) of 3230 nM, a GI50 (DU-145 prostate) of 1680 nM and a TGI (DU-145 prostate) of 3140 nM. For the same molecule, the GI50 (UACC-257 melanoma) was 1720 nM, the TGI (UACC-257 melanoma) was 3150 nM and the GI50 (SF-539 CNS) was 1650 nM. The TGI (SF-539 CNS) was 3090 nM, the GI50 (CAKI-1 renal) was 1890 nM and the TGI (CAKI-1 renal) was 4230 nM. For the same molecule, the GI50 (OVCAR-5 ovarian) was 1170 nM, the TGI (OVCAR-5 ovarian) was 2680 nM and the GI50 (HS 578T breast) was 2990 nM. For the same molecule, the TGI (HS 578T breast) was 9620 nM, the GI50 (SK-OV-3 ovarian) was 4150 nM and the TGI (SK-OV-3 ovarian) was 9640 nM. It also gave a GI50 (HT29 colon) of 1240 nM, a TGI (HT29 colon) of 2600 nM and a GI50 (ACHN renal) of 1700 nM. For the same molecule, the TGI (ACHN renal) was 3140 nM, the GI50 (HOP-92 NSCLC) was 2710 nM and the TGI (HOP-92 NSCLC) was 16000 nM. For the same molecule, the GI50 (SNB-75 CNS) was 1690 nM, the TGI (SNB-75 CNS) was 3170 nM and the GI50 (MDA-MB-231 breast) was 1640 nM. For the same molecule, the TGI (MDA-MB-231 breast) was 3280 nM, the GI50 (NCI-H226 lung) was 4030 nM and the TGI (NCI-H226 lung) was 33000 nM. The GI50 (UO-31 renal) was 978 nM, the TGI (UO-31 renal) was 2480 nM and the GI50 (NCI/ADR-RES ovarian) was 1940 nM. It also gave a TGI (NCI/ADR-RES ovarian) of 4490 nM, a GI50 (SF-268 CNS) of 1870 nM and a TGI (SF-268 CNS) of 4410 nM. For the same molecule, the GI50 (OVCAR-4 ovarian) was 1710 nM, the TGI (OVCAR-4 ovarian) was 4240 nM and the GI50 (A498 renal) was 462 nM. It also gave a TGI (A498 renal) of 3040 nM, a GI50 (BT-549 breast) of 3770 nM and a TGI (BT-549 breast) of 14500 nM. It also gave a GI50 (RPMI-8226 leukemia) of 267 nM, a TGI (RPMI-8226 leukemia) of 2120 nM and a GI50 (NCI-H23 lung) of 1980 nM. For the same molecule, the TGI (NCI-H23 lung) was 4860 nM, the GI50 (SK-MEL-5 melanoma) was 1600 nM and the TGI (SK-MEL-5 melanoma) was 2990 nM. For the same molecule, the GI50 (IGROV1 ovarian) was 1840 nM, the TGI (IGROV1 ovarian) was 3530 nM and the GI50 (SK-MEL-2 melanoma) was 13400 nM. For the same molecule, the TGI (SK-MEL-2 melanoma) was 32000 nM.
